Test results: patent US10266537B2, “3-acetylenyl-pyrazole-pyrimidine derivative, and preparation method therefor and uses thereof” (Si Chuan University, priority 2015, dated 2019)
Where two headings read alike, the source gives them in different places.

Assays:
[1] = system: MDA-MB-435; assay: Cell proliferation inhibition assay (MTT); type: cell-based, human; settings: Homo sapiens, read-out: Proliferative inhibitory activity MDA-MB-435 (IC50 class)
[2] = system: MDA-MB-231; assay: Cell proliferation inhibition assay (MTT); type: cell-based, human; settings: Homo sapiens, read-out: Proliferative inhibitory activity MDA-MB-231 (IC50 class)

| IC50 ([1]; MDA-MB-435, MTT, 72 hours) [nM] | IC50 ([2]; MDA-MB-231, MTT, 72 hours) [nM] | SMILES | IC50 ([1]; MDA-MB-435, 72 h) [nM] | IC50 ([2]; MDA-MB-231, 72 h) [nM] |
| --- | --- | --- | --- | --- |
| 100 to 500 | < 100 | Cc1ccc(NC(=O)c2ccc(Cl)c(C(F)(F)F)c2)cc1C#Cc1nn(C2CCN(S(C)(=O)=O)CC2)c2ncnc(N)c12 [Compound 81] |  |  |
| < 100 | 100 to 500 | Cc1ccc(NC(=O)c2nc(C(C)(C)C)cs2)cc1C#Cc1nn(C[C@@H](C)CO)c2ncnc(N)c12 [Compound 95] |  |  |
| 100 to 500 | 500 to 1000 | CN1CCC(n2nc(C#Cc3cccc(NC(=O)c4cccc(C(F)(F)F)c4)c3)c3c(N)ncnc32)CC1 [Compound 33] |  |  |
| < 100 | 100 to 500 | Cc1ccc(NC(=O)c2cncc(C(F)(F)F)c2)cc1C#Cc1nn(C2CCN(C)CC2)c2ncnc(N)c12 [Compound 58] |  |  |
| 100 to 500 | < 100 | Cc1ccc(C(=O)Nc2cccc(C(F)(F)F)c2)cc1C#Cc1nn(C[C@@H](C)CO)c2ncnc(N)c12 [Compound 105] |  |  |
| > 1000 | < 100 | Cc1ccc(NC(=O)c2ccc(Cl)c(C(F)(F)F)c2)cc1C#Cc1nn([C@@H]2CCN(C(=O)[C@H](C)O)C2)c2ncnc(N)c12 [Compound 72] |  |  |
| 100 to 500 | 100 to 500 | Cc1ccc(NC(=O)c2cccc(C(F)(F)F)c2F)cc1C#Cc1nn(C2CCN(C)CC2)c2ncnc(N)c12 [Compound 48] |  |  |
| < 100 | < 100 | Cc1ccc(C(=O)Nc2cccc(C(F)(F)F)c2)cc1C#Cc1nn([C@@H]2CCN(C)C2)c2ncnc(N)c12 [Compound 107] |  |  |
| 100 to 500 | < 100 | Cc1ccc(NC(=O)c2ccc(Cl)c(C(F)(F)F)c2)cc1C#Cc1nn(C2CCCN(S(C)(=O)=O)C2)c2ncnc(N)c12 (centres unmarked) [Compound 91] |  |  |
| < 100 | < 100 | CCn1nc(C#Cc2cc(NC(=O)c3ccc(CN4CCN(C)CC4)c(C(F)(F)F)c3)ccc2C)c2c(N)ncnc21 [Compound 102] |  |  |
| > 1000 | 500 to 1000 | Cc1ccc(NC(=O)c2ccc(F)c(Cl)c2)cc1C#Cc1nn(C2CCN(C)CC2)c2ncnc(N)c12 [Compound 46] |  |  |
| 100 to 500 | > 1000 | CN1CCC(n2nc(C#Cc3cccc(C(=O)Nc4cccc(C(F)(F)F)c4)c3)c3c(N)ncnc32)CC1 [Compound 37] |  |  |
| < 100 | < 100 | Cc1ccc(C(=O)Nc2cccc(C(F)(F)F)c2)cc1C#Cc1nn([C@H]2CC[C@H](O)CC2)c2ncnc(N)c12 [Compound 103] |  |  |
| < 100 | < 100 | Cc1ccc(NC(=O)c2cccc(C(F)(F)F)c2)cc1C#Cc1nn(C[C@H](C)CO)c2ncnc(N)c12 [Compound 111] |  |  |
| 100 to 500 | 100 to 500 | Cc1ccc(NC(=O)c2ccc(C)c(C(F)(F)F)c2)cc1C#Cc1nn([C@@H]2CCN(C)C2)c2ncnc(N)c12 [Compound 116] |  |  |
| > 1000 | 500 to 1000 | Cc1ccc(NC(=O)c2cccc(C(F)(F)F)n2)cc1C#Cc1nn(C2CCN(C)CC2)c2ncnc(N)c12 [Compound 57] |  |  |
|  |  | Cc1ccc(C(=O)Nc2ccc(CN3CCN(C)CC3)c(C(F)(F)F)c2)cc1C#Cc1nn([C@H]2CCOC2)c2ncnc(N)c12 [Compound 21] | < 100 | < 100 |
| 100 to 500 | 500 to 1000 | CN1CCC(n2nc(C#Cc3cc(NC(=O)c4cccc(C(F)(F)F)c4)ccc3Cl)c3c(N)ncnc32)CC1 [Compound 34] |  |  |
| < 100 | < 100 | Cc1ccc(C(=O)Nc2cc(C(C)(C)C)on2)cc1C#Cc1nn(C2CCN(C)CC2)c2ncnc(N)c12 [Compound 62] |  |  |
| < 100 | < 100 | Cc1ccc(NC(=O)c2cccc(C(F)(F)F)c2)cc1C#Cc1nn(C[C@@H](C)CO)c2ncnc(N)c12 [Compound 101] |  |  |
| 100 to 500 | 100 to 500 | CCn1nc(C#Cc2cc(C(=O)Nc3cccc(C(F)(F)F)c3)ccc2C)c2c(N)ncnc21 [Compound 119] |  |  |
| 100 to 500 | < 100 | Cc1ccc(NC(=O)c2ccc(C)c(C(F)(F)F)c2)cc1C#Cc1nn(CC2CCN(C)CC2)c2ncnc(N)c12 [Compound 115] |  |  |
| < 100 | < 100 | Cc1ccc(NC(=O)c2cccc(C(C)(C)C)c2)cc1C#Cc1nn(C2CCN(C)CC2)c2ncnc(N)c12 [Compound 40] |  |  |
| > 1000 | > 1000 | CCn1nc(C#Cc2cc(C(=O)Nc3ccc(CN4CCN(C)CC4)c(C(F)(F)F)c3)ccc2C(C)C)c2c(N)ncnc21 [Compound 27] |  |  |
| < 100 | < 100 | Cc1ccc(NC(=O)c2cccc(OC(F)(F)F)c2)cc1C#Cc1nn(C2CCN(C)CC2)c2ncnc(N)c12 [Compound 52] |  |  |
| < 100 | < 100 | Cc1ccc(C(=O)Nc2cccc(C(F)(F)F)c2)cc1C#Cc1nn(CC2CCN(C)CC2)c2ncnc(N)c12 [Compound 109] |  |  |
| 100 to 500 | 100 to 500 | Cc1ccc(NC(=O)c2nc(C(C)(C)C)cs2)cc1C#Cc1nn([C@@H]2CCN(C)C2)c2ncnc(N)c12 [Compound 97] |  |  |

| IC50 ([1]; MDA-MB-435, MTT, 72 hours) [nM] | IC50 ([2]; MDA-MB-231, MTT, 72 hours) [nM] | SMILES | IC50 ([1]; MDA-MB-435, 72 h) [nM] | IC50 ([2]; MDA-MB-231, 72 h) [nM] |
| --- | --- | --- | --- | --- |
| 100 to 500 | 100 to 500 | Cc1ccc(NC(=O)c2cc(Cl)cc(Cl)c2)cc1C#Cc1nn(C2CCN(C)CC2)c2ncnc(N)c12 [Compound 68] |  |  |
| > 1000 | 100 to 500 | Cc1ccc(NC(=O)c2ccc(Cl)c(C(F)(F)F)c2)cc1C#Cc1nn(CC2CCN(S(C)(=O)=O)CC2)c2ncnc(N)c12 [Compound 75] |  |  |
| 500 to 1000 | < 100 | Cc1ccc(NC(=O)c2ccc(Cl)c(C(F)(F)F)c2)cc1C#Cc1nn(C2CCCC2)c2ncnc(N)c12 [Compound 78] |  |  |
| 100 to 500 | < 100 | Cc1ccc(NC(=O)c2ccc(C)c(C(F)(F)F)c2)cc1C#Cc1nn(C[C@@H](C)CO)c2ncnc(N)c12 [Compound 99] |  |  |
| > 1000 | > 1000 | Cc1ccc(NC(=O)c2cc(C(F)(F)F)cc(Cl)c2F)cc1C#Cc1nn(C2CCN(C)CC2)c2ncnc(N)c12 [Compound 56] |  |  |
| < 100 | < 100 | Cc1ccc(NC(=O)c2cc(C(F)(F)F)cc(C(F)(F)F)c2)cc1C#Cc1nn(C2CCN(C)CC2)c2ncnc(N)c12 [Compound 54] |  |  |
| > 1000 | < 100 | Cc1ccc(NC(=O)c2ccc(Cl)c(C(F)(F)F)c2)cc1C#Cc1nn(C2CCCN(C(=O)[C@@H](C)O)C2)c2ncnc(N)c12 (some centres unmarked) [Compound 87] |  |  |
| 100 to 500 | 100 to 500 | Cc1cccc(C(=O)Nc2ccc(C)c(C#Cc3nn(C4CCN(C)CC4)c4ncnc(N)c34)c2)c1 [Compound 55] |  |  |
| 500 to 1000 | < 100 | Cc1ccc(NC(=O)c2ccc(Cl)c(C(F)(F)F)c2)cc1C#Cc1nn(CC2CCN(C)CC2)c2ncnc(N)c12 [Compound 79] |  |  |
| 100 to 500 | 100 to 500 | CCNc1ncnc2c1c(C#Cc1cc(C(=O)Nc3cccc(C(F)(F)F)c3)ccc1C)nn2CC [Compound 104] |  |  |
| > 1000 | 500 to 1000 | Cc1ccc(NC(=O)c2ccc(C(F)(F)F)cc2)cc1C#Cc1nn(C2CCN(C)CC2)c2ncnc(N)c12 [Compound 41] |  |  |
| > 1000 | 500 to 1000 | Cc1ccc(NC(=O)c2cccc(F)c2)cc1C#Cc1nn(C2CCN(C)CC2)c2ncnc(N)c12 [Compound 45] |  |  |
| < 100 | < 100 | Cc1ccc(NC(=O)c2ccc(Cl)c(C(F)(F)F)c2)cc1C#Cc1nn(C2CCC(O)CC2)c2ncnc(N)c12 (centres unmarked) [Compound 74] |  |  |
| 100 to 500 | < 100 | Cc1ccc(NC(=O)c2ccc(Cl)c(C(F)(F)F)c2)cc1C#Cc1nn(C[C@H](C)CO)c2ncnc(N)c12 [Compound 83] |  |  |
| 100 to 500 | 100 to 500 | COc1cccc(C(=O)Nc2ccc(C)c(C#Cc3nn(C4CCN(C)CC4)c4ncnc(N)c34)c2)c1 [Compound 44] |  |  |
| > 1000 | 500 to 1000 | Cc1ccc(NC(=O)c2cc(F)cc(C(F)(F)F)c2)cc1C#Cc1nn(C2CCN(C)CC2)c2ncnc(N)c12 [Compound 51] |  |  |
| 100 to 500 | > 1000 | CCn1nc(C#Cc2cc(C(=O)Nc3ccc(CN4CCN(C)CC4)c(C(F)(F)F)c3)ccc2F)c2c(N)ncnc21 [Compound 23] |  |  |
| 100 to 500 | < 100 | Cc1ccc(C(=O)Nc2cccc(C(F)(F)F)c2)cc1C#Cc1nn(CC2CCN(C)C2)c2ncnc(N)c12 (centres unmarked) [Compound 108] |  |  |
| 100 to 500 | 100 to 500 | Cc1ccc(NC(=O)c2cc(C(F)(F)F)ccc2F)cc1C#Cc1nn(C2CCN(C)CC2)c2ncnc(N)c12 [Compound 50] |  |  |
| 500 to 1000 | 100 to 500 | Cc1ccc(NC(=O)c2ccc(Cl)c(Cl)c2)cc1C#Cc1nn(C2CCN(C)CC2)c2ncnc(N)c12 [Compound 60] |  |  |
| 500 to 1000 | < 100 | Cc1ccc(NC(=O)c2ccc(Cl)c(C(F)(F)F)c2)cc1C#Cc1nn(C2CCN(C(=O)[C@H](C)O)CC2)c2ncnc(N)c12 [Compound 70] |  |  |
| > 1000 | 100 to 500 | Cc1ccc(NC(=O)c2ccc(C)c(C#Cc3nn(C(C)C)c4ncnc(N)c34)c2)cc1 [Compound 22] |  |  |
| 500 to 1000 | < 100 | Cc1ccc(NC(=O)c2ccc(Cl)c(C(F)(F)F)c2)cc1C#Cc1nn([C@@H]2CCCN(S(C)(=O)=O)C2)c2ncnc(N)c12 [Compound 90] |  |  |
| 500 to 1000 | 500 to 1000 | Cc1ccc(NC(=O)c2ccc(F)c(C(F)(F)F)c2)cc1C#Cc1nn(C2CCN(C)CC2)c2ncnc(N)c12 [Compound 47] |  |  |
| 500 to 1000 | > 1000 | CN1CCC(n2nc(C#Cc3cccc(NC(=O)Nc4cccc(C(F)(F)F)c4)c3)c3c(N)ncnc32)CC1 [Compound 39] |  |  |
| 100 to 500 | < 100 | Cc1ccc(NC(=O)c2ccc(Cl)c(C(F)(F)F)c2)cc1C#Cc1nn(CC2CCN(S(C)(=O)=O)C2)c2ncnc(N)c12 (centres unmarked) [Compound 76] |  |  |
| 100 to 500 | 100 to 500 | Cc1ccc(C(=O)Nc2cc(C(C)(C)C)nn2C)cc1C#Cc1nn(C2CCN(C)CC2)c2ncnc(N)c12 [Compound 61] |  |  |

| SMILES | IC50 ([1]; MDA-MB-435, MTT, 72 hours) [nM] | IC50 ([2]; MDA-MB-231, MTT, 72 hours) [nM] | IC50 ([1]; MDA-MB-435, 72 h) [nM] | IC50 ([2]; MDA-MB-231, 72 h) [nM] |
| --- | --- | --- | --- | --- |
| CCn1nc(C#Cc2cc(C(=O)Nc3ccc(CN4CCN(C)CC4)c(C(F)(F)F)c3)ccc2C)c2c(N)ncnc21 [Compound 2] | < 100 | < 100 |  |  |
